# Active and inactive are the calls of the source. The calls are words filed in the database; no cut-off is given here.
# Assays:
# [1] = system: CT26.WT; test: Antiproliferative activity against mouse CT26.WT cells after 48 hrs by MTT assay; type: functional, cell-based
# [2] = system: SW-620; test: Antiproliferative activity against human SW620 cells after 48 hrs by MTT assay; type: functional, cell-based; conditions: SW-620, 48 h
# [3] = system: HCT-116; test: Antiproliferative activity against human HCT116 cells after 48 hrs by MTT assay; type: functional, cell-based; conditions: HCT-116, 48 h
# [4] = system: MCF7; test: Growth inhibition of human MCF7 cells at 20 uM after 72 hrs by SRB assay; type: functional, cell-based
# [5] = system: MCF7; test: Growth inhibition of human MCF7 cells at 20 uM after 72 hrs by ATP bioluminescence assay; type: functional, cell-based
# [6] = system: A549; test: Growth inhibition of human A549 cells at 20 uM after 72 hrs by SRB assay; type: functional, cell-based
# [7] = system: A549; test: Growth inhibition of human A549 cells after 72 hrs by ATP bioluminescence assay; type: functional, cell-based; conditions: A549, 72 h
# [8] = system: MCF7; test: Growth inhibition of human MCF7 cells after 72 hrs by ATP bioluminescence assay; type: functional, cell-based; conditions: MCF7, 72 h
# [9] = system: PC-3; test: Growth inhibition of human PC3 cells after 72 hrs by ATP bioluminescence assay; type: functional, cell-based; conditions: PC-3, 72 h
# [10] = system: A549; test: Induction of apoptosis in human A549 cells assessed as early apoptotic cells at 20 uM after 48 hrs by caspase 3/7 staining-based flow cytometry (reference value: 1.70%); type: functional
# [11] = system: A549; test: Induction of apoptosis in human A549 cells assessed as late apoptotic cells at 20 uM after 48 hrs by caspase 3/7 staining-based flow cytometry (reference value: 2.56%); type: functional
# [12] = system: A549; test: Induction of apoptosis in human A549 cells assessed as necrotic cells at 20 uM after 48 hrs by caspase 3/7 staining-based flow cytometry (reference value: 1.50%); type: functional
# [13] = system: A549; test: Induction of apoptosis in human A549 cells assessed as viable cells at 20 uM after 48 hrs by caspase 3/7 staining-based flow cytometry (reference value: 94.25%); type: functional; conditions: A549, 48 h, read-out: Activity
# [14] = system: MCF7; test: Induction of apoptosis in human MCF7 cells assessed as early apoptotic cells at 20 uM after 48 hrs by caspase 3/7 staining-based flow cytometry (reference value: 2.65%); type: functional
# [15] = system: MCF7; test: Induction of apoptosis in human MCF7 cells assessed as late apoptotic cells at 20 uM after 48 hrs by caspase 3/7 staining-based flow cytometry (reference value: 10.80%); type: functional
# [16] = system: MCF7; test: Induction of apoptosis in human MCF7 cells assessed as necrotic cells at 20 uM after 48 hrs by caspase 3/7 staining-based flow cytometry (reference value: 1.25%); type: functional
# [17] = system: MCF7; test: Induction of apoptosis in human MCF7 cells assessed as viable cells at 20 uM after 48 hrs by caspase 3/7 staining-based flow cytometry (reference value: 85.30%); type: functional; conditions: MCF7, 48 h, read-out: Activity
# [18] = system: PC-3; test: Induction of apoptosis in human PC3 cells assessed as early apoptotic cells at 20 uM after 48 hrs by caspase 3/7 staining-based flow cytometry (reference value: 0.3%); type: functional
# [19] = system: PC-3; test: Induction of apoptosis in human PC3 cells assessed as late apoptotic cells at 20 uM after 48 hrs by caspase 3/7 staining-based flow cytometry (reference value: 1.90%); type: functional
# [20] = system: PC-3; test: Induction of apoptosis in human PC3 cells assessed as necrotic cells at 20 uM after 48 hrs by caspase 3/7 staining-based flow cytometry (reference value: 3.05%); type: functional
# [21] = system: PC-3; test: Induction of apoptosis in human PC3 cells assessed as viable cells at 20 uM after 48 hrs by caspase 3/7 staining-based flow cytometry (reference value: 94.75%); type: functional; conditions: PC-3, 48 h, read-out: Activity
# [22] = system: A549; test: Induction of apoptosis in human A549 cells assessed as early apoptotic cells at 20 uM after 48 hrs by annexin V-propidium iodide staining-based flow cytometry (reference value: 3.75%); type: functional
# [23] = system: A549; test: Induction of apoptosis in human A549 cells assessed as late apoptotic cells at 20 uM after 48 hrs by annexin V-propidium iodide staining-based flow cytometry (reference value: 3.05%); type: functional
# [24] = system: A549; test: Induction of apoptosis in human A549 cells assessed as necrotic cells at 20 uM after 48 hrs by annexin V-propidium iodide staining-based flow cytometry (reference value: 1.4%); type: functional
# [25] = system: A549; test: Induction of apoptosis in human A549 cells assessed as viable cells at 20 uM after 48 hrs by annexin V-propidium iodide staining-based flow cytometry (reference value: 91.80%); type: functional; conditions: A549, 48 h, read-out: Activity
# [26] = system: MCF7; test: Induction of apoptosis in human MCF7 cells assessed as early apoptotic cells at 20 uM after 48 hrs by annexin V-propidium iodide staining-based flow cytometry (reference value: 2.15%); type: functional
# [27] = system: MCF7; test: Induction of apoptosis in human MCF7 cells assessed as late apoptotic cells at 20 uM after 48 hrs by annexin V-propidium iodide staining-based flow cytometry (reference value: 7.25%); type: functional
# [28] = system: MCF7; test: Induction of apoptosis in human MCF7 cells assessed as necrotic cells at 20 uM after 48 hrs by annexin V-propidium iodide staining-based flow cytometry (reference value: 0.35%); type: functional
# [29] = system: MCF7; test: Induction of apoptosis in human MCF7 cells assessed as viable cells at 20 uM after 48 hrs by annexin V-propidium iodide staining-based flow cytometry (reference value: 90.25%); type: functional; conditions: MCF7, 48 h, read-out: Activity
# [30] = system: PC-3; test: Induction of apoptosis in human PC3 cells assessed as early apoptotic cells at 20 uM after 48 hrs by annexin V-propidium iodide staining-based flow cytometry (reference value: 1.55%); type: functional
# [31] = system: PC-3; test: Induction of apoptosis in human PC3 cells assessed as late apoptotic cells at 20 uM after 48 hrs by annexin V-propidium iodide staining-based flow cytometry (reference value: 1.45%); type: functional
# [32] = system: PC-3; test: Induction of apoptosis in human PC3 cells assessed as necrotic cells at 20 uM after 48 hrs by annexin V-propidium iodide staining-based flow cytometry (reference value: 2.45%); type: functional
# [33] = system: PC-3; test: Induction of apoptosis in human PC3 cells assessed as viable cells at 20 uM after 48 hrs by annexin V-propidium iodide staining-based flow cytometry (reference value: 94.55%); type: functional; conditions: PC-3, 48 h, read-out: Activity
# [34] = system: A549; test: Induction of mitochondrial membrane depolarization in human A549 cells assessed as live cells at 20 uM after 48 hrs by 7-AAD/Muse mito-potential dye-based assay (reference value: 85.84%); type: functional
# [35] = system: A549; test: Induction of mitochondrial membrane depolarization in human A549 cells assessed as dead cells at 20 uM after 48 hrs by 7-AAD/Muse mito-potential dye-based assay (reference value: 2.44%); type: functional
# [36] = system: A549; test: Induction of mitochondrial membrane depolarization in human A549 cells assessed as depolarized dead cells at 20 uM after 48 hrs by 7-AAD/Muse mito-potential dye-based assay (reference value: 7.88%); type: functional
# [37] = system: A549; test: Induction of mitochondrial membrane depolarization in human A549 cells assessed as depolarized live cells at 20 uM after 48 hrs by 7-AAD/Muse mito-potential dye-based assay (reference value: 3.84%); type: functional
# [38] = system: MCF7; test: Induction of mitochondrial membrane depolarization in human MCF7 cells assessed as live cells at 20 uM after 48 hrs by 7-AAD/Muse mito-potential dye-based assay (reference value: 78.59%); type: functional
# [39] = system: MCF7; test: Induction of mitochondrial membrane depolarization in human MCF7 cells assessed as dead cells at 20 uM after 48 hrs by 7-AAD/Muse mito-potential dye-based assay (reference value: 2.30%); type: functional
# [40] = system: MCF7; test: Induction of mitochondrial membrane depolarization in human MCF7 cells assessed as depolarized dead cells at 20 uM after 48 hrs by 7-AAD/Muse mito-potential dye-based assay (reference value: 12.43%); type: functional
# [41] = system: MCF7; test: Induction of mitochondrial membrane depolarization in human MCF7 cells assessed as depolarized live cells at 20 uM after 48 hrs by 7-AAD/Muse mito-potential dye-based assay (reference value: 6.67%); type: functional
# [42] = system: PC-3; test: Induction of mitochondrial membrane depolarization in human PC3 cells assessed as live cells at 20 uM after 48 hrs by 7-AAD/Muse mito-potential dye-based assay (reference value: 83.15%); type: functional
# [43] = system: PC-3; test: Induction of mitochondrial membrane depolarization in human PC3 cells assessed as dead cells at 20 uM after 48 hrs by 7-AAD/Muse mito-potential dye-based assay (reference value: 2.20%); type: functional
# [44] = system: PC-3; test: Induction of mitochondrial membrane depolarization in human PC3 cells assessed as depolarized dead cells at 20 uM after 48 hrs by 7-AAD/Muse mito-potential dye-based assay (reference value: 2.05%); type: functional
# [45] = system: PC-3; test: Induction of mitochondrial membrane depolarization in human PC3 cells assessed as depolarized live cells at 20 uM after 48 hrs by 7-AAD/Muse mito-potential dye-based assay (reference value: 12.60%); type: functional
# [46] = system: A549; test: Induction of ROS generation in human A549 cells assessed as accumulation at M1 phase at 20 uM after 48 hrs flow cytometry (reference value: 97.60%); type: functional
# [47] = system: A549; test: Induction of ROS generation in human A549 cells assessed as accumulation at M2 phase at 20 uM after 48 hrs flow cytometry (reference value: 1.07%); type: functional
# [48] = system: MCF7; test: Induction of ROS generation in human MCF7 cells assessed as accumulation at M1 phase at 20 uM after 48 hrs flow cytometry (reference value: 97.67%); type: functional
# [49] = system: MCF7; test: Induction of ROS generation in human MCF7 cells assessed as accumulation at M2 phase at 20 uM after 48 hrs flow cytometry (reference value: 2.33%); type: functional
# [50] = system: PC-3; test: Induction of ROS generation in human PC3 cells assessed as accumulation at M1 phase at 20 uM after 48 hrs flow cytometry (reference value: 99.67%); type: functional
# [51] = system: PC-3; test: Induction of ROS generation in human PC3 cells assessed as accumulation at M2 phase at 20 uM after 48 hrs flow cytometry (reference value: 0.33%); type: functional
# [52] = system: MCF7; test: Induction of morphological changes in human MCF7 cells assessed as reduction in cell density at 20 uM after 72 hrs by phase contrast microscopic method; type: functional, cell-based
# [53] = system: PC-3; test: Induction of morphological changes in human PC3 cells assessed as reduction in cell density at 20 uM after 72 hrs by phase contrast microscopic method; type: functional, cell-based
# [54] = system: A549; test: Induction of morphological changes in human A549 cells assessed as reduction in cell density at 20 uM after 72 hrs by phase contrast microscopic method; type: functional, cell-based
# [55] = system: A549; test: Growth inhibition of human A549 cells at 20 uM after 72 hrs by ATP bioluminescence assay; type: functional, cell-based
# [56] = system: PC-3; test: Growth inhibition of human PC3 cells at 20 uM after 72 hrs by ATP bioluminescence assay; type: functional, cell-based
compound,measurement,setting,value
COc1ccccc1/C=C/C(=O)c1ccc(O)c(O)c1,IC50,[1],3.36 µM
same,IC50,[2],11.7 µM
same,IC50,[3],25.9 µM
CCOc1cccc2cc(C(=O)/C=C/c3cccs3)oc12,growth inhibition (GI),[4],Active
same,growth inhibition (GI),[5],Active
CCOc1cccc2cc(C(=O)/C=C/c3ccc(C)cc3)oc12,growth inhibition (GI),[4],Active
same,growth inhibition (GI),[5],Active
CCOc1cccc2cc(C(=O)/C=C/c3ccc(OC)cc3)oc12,growth inhibition (GI),[4],Active
same,growth inhibition (GI),[5],Active
CCOc1cccc2cc(C(=O)/C=C/c3ccc(N(C)C)cc3)oc12,growth inhibition (GI),[6],Active
same,growth inhibition (GI),[4],Active
same,IC50,[7],9 µM
same,IC50,[8],2 µM
same,IC50,[9],10 µM
same,Activity,[10],7.75%
same,Activity,[11],58.7%
same,Activity,[12],10.5%
same,viability at 20 µM,[13],23.1%
same,Activity,[14],45%
same,Activity,[15],41%
same,Activity,[16],0.26%
same,viability at 20 µM,[17],13.8%
same,Activity,[18],0.65%
same,Activity,[19],11.1%
same,Activity,[20],37.25%
same,viability at 20 µM,[21],51%
same,Activity,[22],1.8%
same,Activity,[23],95.2%
same,Activity,[24],0.2%
same,viability at 20 µM,[25],2.8%
same,Activity,[26],4.3%
same,Activity,[27],91.7%
same,Activity,[28],0.7%
same,viability at 20 µM,[29],3.3%
same,Activity,[30],6.45%
same,Activity,[31],59.7%
same,Activity,[32],6.9%
same,viability at 20 µM,[33],26.9%
same,Activity,[34],15.29%
same,Activity,[35],1.35%
same,Activity,[36],32.78%
same,Activity,[37],50.57%
same,Activity,[38],24.3%
same,Activity,[39],54.3%
same,Activity,[40],13.5%
same,Activity,[41],7.9%
same,Activity,[42],31.75%
same,Activity,[43],19.15%
same,Activity,[44],18.6%
same,Activity,[45],30.5%
same,Activity,[46],79.33%
same,Activity,[47],20.67%
same,Activity,[48],85.13%
same,Activity,[49],14.87%
same,Activity,[50],98.83%
same,Activity,[51],1.17%
same,Activity,[52],Active
same,Activity,[53],Active
same,Activity,[54],Active
same,growth inhibition (GI),[55],Active
same,growth inhibition (GI),[5],Active
same,growth inhibition (GI),[56],Active

# From ChEMBL document CHEMBL4138088, “Novel 1-(7-ethoxy-1-benzofuran-2-yl) substituted chalcone derivatives: Synthesis, characterization and anticancer activity” (Eur J Med Chem, 2017)
